Where a SMILES comes first, the peptide text is derived from it. [ ]: non-standard residue; d: D form. Hyp = O=C(O)[C@@H]1C[C@@H](O)CN1
Tests used:
[1] = tested on: filter-sterile supernatant of Rhodanobacter R179 (secreted peptidase(s)); test: Peptide quantification by mass spectrometry after incubation in cell-free supernatant of Rhodanobacter R179; assay type: in vitro ADME; conditions: for peptide detected by mass spectrometry after incubation in supernatant of the R179 dssAB mutant / peptide detected by mass spectrometry after incubation in supernatant of wild-type R179: 1 µM peptide, 1 h, LC-MS MS1 peak area; for peptide detected by mass spectrometry after incubation in supernatant of the R179 dssAB mutant: filter-sterile supernatant of dssAB mutant cultivated in XVM2 (OD600 = 0.4), n = 3; for peptide detected by mass spectrometry after incubation in supernatant of wild-type R179: filter-sterile supernatant of wild-type R179 cultivated in XVM2 minimal medium (OD600 = 0.4), light chamber, n = 3 culture supernatants
Protocol: Elicitors were also supplemented into the medium prior to solidification at a final concentration of 1 µM. The flg22 ([…]) and AtPep1 ([…]) peptides were synthesized by EZbiolab. elf18^R179 (Ac-[…]) and elf18 (Ac-[…]) were synthesized by GenScript and EZbiolab, respectively. For inoculation with the bacterial supernatant, bacteria were cultivated overnight in XVM2 minimal medium (20 mM NaCl, 10 mM (NH4)2SO4, 5 mM MgSO4, 1 mM CaCl2, 0.16 mM KH2PO4, 0.32 mM K2HPO4, 0.01 mM FeSO4, 10 mM fructose, 10 mM sucrose, 0.03% Casamino acids, pH 6.7)[76] to a final concentration of OD600 = 0.4. Bacteria were pelleted by centrifugation (11,600 g, 2 min), and the supernatant was sterile-filtered using filter units with MF-Millipore membrane (0.22 µm; Millex). The supernatant was incubated in boiling water for 30 min for heat treatment. Then, 25 ml of 1× MS with 20 g l^−1 Bacto Agar was mixed with 25 ml of supernatant prior to medium solidification and poured into square petri dishes. Sterilized seeds were placed on solidified agar in square petri dishes and vertically incubated for 14 days.
Bacterial supernatants were prepared as described in ‘Agar-based cultivation of axenic plants and co-cultivation with bacteria, bacterial supernatants and elicitors’. Here, additionally, the peptides dRGF1 (DYSNPGHHP-Hyp-RHN) and PSY1 (D-Y(SO3H)-[…]-Hyp-Hyp-S) synthesized by Scilight Peptide were incubated for 1 h with 1 µM of peptides in a plant cultivation light chamber (day-light condition; see ‘Plant cultivation conditions’), and the samples were frozen at −20 °C until further processing. For the investigation of AtPep1 degradation, the AtPep1 peptide was first modified by acetylation (six to seven times). To this end, 100-µl aliquots of peptides were treated with 10 µl of NHS acetate solution (1 M NHS acetate in 50% ACN/PBS) and incubated for 30 min with shaking. The reaction was quenched by the addition of 100 µl of 100 mM Tris-HCl (pH 8.5) and incubated for 10 min. For comparison of the non-acetylated peptides with the above-described modified AtPep1 peptides, aliquots of the non-acetylated peptides were processed as described above, but without the modifying NHS reaction. To this end, 100-µl aliquots of the sample were mixed with 100 µl of PBS buffer (137 mM NaCl, 2.7 mM KCl, 10 mM Na2HPO4, 1.8 mM KH2PO4; pH 7.4). The samples were then further diluted with 100 µl of 100 mM Tris-HCl (pH 8.5) and incubated for 10 min. All samples were acidified with 5 µl of TFA and desalted using StageTips with C18 Empore disk membranes (3M)[109]. The samples were dried in a vacuum evaporator and dissolved in 10 µl of 2% ACN (0.1% TFA for analysis).
The samples were analysed using an EASY-nLC 1200 (Thermo Fisher) coupled to a QExactive Plus mass spectrometer (Thermo Fisher). Peptides were separated on 16-cm frit-less silica emitters (New Objective, 75 µm inner diameter), packed in-house with reversed-phase ReproSil-Pur C18 AQ 1.9 µm resin (Dr. Maisch). Peptides were loaded on the column and eluted for 50 min using a segmented linear gradient of 5% to 95% solvent B (0 min, 5% B; 0–5 min, 15% B; 5–35 min, 50% B; 35–45 min, 95% B; 45–50 min, 95% B) (solvent A: 0% ACN, 0.1% FA; solvent B: 80% ACN, 0.1% FA) at a flow rate of 300 nl min^−1. Mass spectra were acquired in data-dependent acquisition mode with a TOP10 method. Mass spectrometry spectra were acquired in the Orbitrap analyser with a mass range of 300–1,500 m/z at a resolution of 70,000 full width at half maximum (FWHM) and a target value of 3 × 10^6 ions. Precursors were selected with an isolation window of 1.3 m/z. Higher-energy collision dissociation (HCD) fragmentation was performed at a normalized collision energy of 25. Tandem mass spectrometry (MS/MS) spectra were acquired with a target value of 5 × 10^5 ions at a resolution of 17,500 FWHM, a maximum injection time of 85 ms and a fixed first mass of 100 m/z. […]

[2] = filter-sterile supernatant of the Rhodanobacter R179 dssAB mutant cultivated in XVM2 medium (bacterial culture: OD600 = 0.4); conditions: plant cultivation light chamber (day-light condition; 21 °C), up to 1 h
[3] = supernatant of the R179 dssAB mutant grown in XVM2 minimal medium supplemented with 10% TSB; conditions: Rhodanobacter R179 dssAB mutant, plant cultivation light chamber (day-light condition; 21 °C), up to 1 h
[4] = supernatant of wild-type R179 grown in XVM2 medium supplemented with 10% carbon-rich medium (tryptic soy broth); conditions: Rhodanobacter R179, plant cultivation light chamber (day-light condition; 21 °C), up to 1 h
[5] = filter-sterile supernatant of wild-type Rhodanobacter R179 cultivated in XVM2 medium (bacterial culture: OD600 = 0.4); conditions: Rhodanobacter R179, plant cultivation light chamber (day-light condition; 21 °C), up to 1 h
[6] = R179 dssAB mutant supernatant, XVM2 medium, incubation 1h, MS1 precursor area, replicate 1
[7] = R179 dssAB mutant supernatant, XVM2 medium, incubation 1h, MS1 precursor area, replicate 2
[8] = R179 dssAB mutant supernatant, XVM2 medium, incubation 1h, MS1 precursor area, replicate 3
[9] = R179 dssAB mutant supernatant, XVM2 medium, incubation 1h, peptide relative to axenic, replicate 1
[10] = R179 dssAB mutant supernatant, XVM2 medium, incubation 1h, peptide relative to axenic, replicate 2
[11] = R179 dssAB mutant supernatant, XVM2 medium, incubation 1h, peptide relative to axenic, replicate 3
[12] = R179 wt supernatant, XVM2 medium, incubation 1h, MS1 precursor area, replicate 1
[13] = R179 wt supernatant, XVM2 medium, incubation 1h, MS1 precursor area, replicate 2
[14] = R179 wt supernatant, XVM2 medium, incubation 1h, MS1 precursor area, replicate 3
[15] = R179 wt supernatant, XVM2 medium, incubation 1h, peptide relative to axenic, replicate 1
[16] = R179 wt supernatant, XVM2 medium, incubation 1h, peptide relative to axenic, replicate 2
[17] = R179 wt supernatant, XVM2 medium, incubation 1h, peptide relative to axenic, replicate 3
[18] = axenic XVM2 medium control, incubation 1h, MS1 precursor area, replicate 1
[19] = axenic XVM2 medium control, incubation 1h, MS1 precursor area, replicate 2
[20] = axenic XVM2 medium control, incubation 1h, MS1 precursor area, replicate 3
[21] = axenic XVM2 medium control, incubation 1h, peptide relative to axenic, replicate 1
[22] = axenic XVM2 medium control, incubation 1h, peptide relative to axenic, replicate 2
[23] = axenic XVM2 medium control, incubation 1h, peptide relative to axenic, replicate 3

N=C(N)NCCC[C@H](NC(=O)[C@@H]1C[C@@H](O)CN1C(=O)[C@@H]1CCCN1C(=O)[C@H](Cc1c[nH]cn1)NC(=O)[C@H](Cc1c[nH]cn1)NC(=O)CNC(=O)[C@@H]1CCCN1C(=O)[C@H](CC(N)=O)NC(=O)[C@H](CO)NC(=O)[C@H](Cc1ccc(O)cc1)NC(=O)[C@@H](N)CC(=O)O)C(=O)N[C@@H](Cc1c[nH]cn1)C(=O)N[C@@H](CC(N)=O)C(=O)O [dRGF1] (H-DYSNPGHHP[Hyp]RHN-OH)
peptide detected by mass spectrometry after incubation in supernatant of the R179 dssAB mutant [1]: still detected | peptide detected by mass spectrometry after incubation in supernatant of wild-type R179 [1]: still detected | Log10(total_area_MS1) [1, 6]: 8.738 | Log10(total_area_MS1) [1, 7]: 8.7982 | Log10(total_area_MS1) [1, 8]: 8.898 | percent_rel_axenic [1, 9]: 299.876% | percent_rel_axenic [1, 10]: 344.476% | percent_rel_axenic [1, 11]: 433.442% | Log10(total_area_MS1) [1, 12]: 8.685 | Log10(total_area_MS1) [1, 13]: 8.632 | Log10(total_area_MS1) [1, 14]: 8.682 | percent_rel_axenic [1, 15]: 265.464% | percent_rel_axenic [1, 16]: 235.074% | percent_rel_axenic [1, 17]: 263.706% | Log10(total_area_MS1) ([1]; axenic XVM2_TSB, 1h, 1 µM, LC-MS [M+2H], replicate 2): 8.595 | Log10(total_area_MS1) ([1]; axenic XVM2_TSB, 1h, 1 µM, LC-MS [M+2H], replicate 3): 8.5 | percent_rel_axenic ([1]; axenic XVM2_TSB, 1h, 1 µM, LC-MS, relative to axenic, replicate 2): 103.573% | percent_rel_axenic ([1]; axenic XVM2_TSB, 1h, 1 µM, LC-MS, relative to axenic, replicate 3): 83.3448% | Log10(total_area_MS1) [1, 18]: 8.337 | Log10(total_area_MS1) [1, 19]: 8.259 | Log10(total_area_MS1) [1, 20]: 8.171 | percent_rel_axenic [1, 21]: 119.158% | percent_rel_axenic [1, 22]: 99.6152% | percent_rel_axenic [1, 23]: 81.2268% | Log10(total_area_MS1) ([1]; supernatant of wt R179 grown in XVM2_TSB, 1h, 1 µM, LC-MS [M+2H], replicate 1): 8.931 | Log10(total_area_MS1) ([1]; supernatant of wt R179 grown in XVM2_TSB, 1h, 1 µM, LC-MS [M+2H], replicate 2): 9.001 | percent_rel_axenic ([1]; supernatant of wt R179 grown in XVM2_TSB, 1h, 1 µM, LC-MS, relative to axenic, replicate 1): 225.002% | percent_rel_axenic ([1]; supernatant of wt R179 grown in XVM2_TSB, 1h, 1 µM, LC-MS, relative to axenic, replicate 2): 263.948%

D-Y(SO3H)-GDPSANPKHDPGV-Hyp-Hyp-S [PSY1, root-growth-promoting sulfated PSY1 peptide]
peptide detected by mass spectrometry after incubation in supernatant of the R179 dssAB mutant [1]: still detected | peptide detected by mass spectrometry after incubation in supernatant of wild-type R179 [1]: still detected | Log10(total_area_MS1) [1, 6]: 9.656 | Log10(total_area_MS1) [1, 7]: 9.68 | Log10(total_area_MS1) [1, 8]: 9.49 | percent_rel_axenic [1, 9]: 16.8242% | percent_rel_axenic [1, 10]: 17.7896% | percent_rel_axenic [1, 11]: 11.4643% | Log10(total_area_MS1) [1, 12]: 9.465 | Log10(total_area_MS1) [1, 13]: 9.6971 | Log10(total_area_MS1) [1, 14]: 9.627 | percent_rel_axenic [1, 15]: 10.8248% | percent_rel_axenic [1, 16]: 18.4872% | percent_rel_axenic [1, 17]: 15.7291% | Log10(total_area_MS1) [1, 18]: 10.5778 | Log10(total_area_MS1) [1, 19]: 10.3906 | Log10(total_area_MS1) [1, 20]: 10.2645 | percent_rel_axenic [1, 21]: 140.453% | percent_rel_axenic [1, 22]: 91.2772% | percent_rel_axenic [1, 23]: 68.27%

DYSNPGHHP-Hyp-RHN
not cleaved [2]: still detected after 1 h; peak area above 100% relative to mock (Fig. 4a) | not cleaved [3]: peak area above 100% relative to mock (Extended Data Fig. 7d) | not cleaved [4]: peak area above 100% relative to mock (Extended Data Fig. 7d) | not cleaved [5]: still detected after 1 h; peak area above 100% relative to mock (Fig. 4a)

Reference: article PMC11928319 (Nature Plants, 2025)
